Legend:
Assay in all cases: relative viability (nuclei count vs DMSO), 5 days (fraction); higher = more cells survive
Crenolanib + Foretinib = compound: CC1(COc2ccc3c(c2)ncn3-c2ccc3cccc(N4CCC(N)CC4)c3n2)COC1 [Crenolanib] + COc1cc2c(Oc3ccc(NC(=O)C4(C(=O)Nc5ccc(F)cc5)CC4)cc3F)ccnc2cc1OCCCN1CCOCC1 [Foretinib] (partner 0.25 µM)
Method in brief: (§1)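 The day after seeding in 1536-well plates, lung cancer cell lines were treated by pin tool with a single drug, or with a fixed anchor-drug dose together with five library-drug doses (not always all listed) in √10 steps. After 5 days, a combined fix-and-stain solution (final 0.05% Triton X-100, 1% formaldehyde, 1 ug/ml Hoechst) was added. Nuclei counted on 4× images gave relative viability as treated counts over vehicle counts, reported as the median of duplicate plates.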

Tivantinib + OSI-027 = compound: O=C1NC(=O)[C@@H](c2cn3c4c(cccc24)CCC3)[C@@H]1c1c[nH]c2ccccc12 [Tivantinib] + COc1cccc2cc(-c3nc([C@H]4CC[C@H](C(=O)O)CC4)n4ncnc(N)c34)[nH]c12 [OSI-027] (partner 0.5 µM)
Method in brief: as §1

Tivantinib + Lapatinib = compound: O=C1NC(=O)[C@@H](c2cn3c4c(cccc24)CCC3)[C@@H]1c1c[nH]c2ccccc12 [Tivantinib] + CS(=O)(=O)CCNCc1ccc(-c2ccc3ncnc(Nc4ccc(OCc5cccc(F)c5)c(Cl)c4)c3c2)o1 [Lapatinib] (partner 2 µM)
Method in brief: as §1

Tivantinib + Pemetrexed = compound: O=C1NC(=O)[C@@H](c2cn3c4c(cccc24)CCC3)[C@@H]1c1c[nH]c2ccccc12 [Tivantinib] + Nc1nc2[nH]cc(CCc3ccc(C(=O)N[C@@H](CCC(=O)O)C(=O)O)cc3)c2c(=O)[nH]1 [Pemetrexed] (partner 0.2 µM)
Method in brief: as §1

Cell Line	relative viability (Crenolanib + Foretinib; first compound 0.01 µM)	relative viability (Crenolanib + Foretinib; first compound 0.03162 µM)	relative viability (Crenolanib + Foretinib; first compound 0.1 µM)	relative viability (Crenolanib + Foretinib; first compound 0.3162 µM)	relative viability (Crenolanib + Foretinib; first compound 1 µM)	relative viability (Tivantinib + OSI-027; first compound 0.01 µM)	relative viability (Tivantinib + OSI-027; first compound 0.03162 µM)	relative viability (Tivantinib + OSI-027; first compound 0.1 µM)	relative viability (Tivantinib + OSI-027; first compound 0.3162 µM)	relative viability (Tivantinib + Lapatinib; first compound 0.01 µM)	relative viability (Tivantinib + Lapatinib; first compound 0.03162 µM)	relative viability (Tivantinib + Lapatinib; first compound 0.1 µM)	relative viability (Tivantinib + Lapatinib; first compound 0.3162 µM)	relative viability (Tivantinib + Pemetrexed; first compound 0.01 µM)	relative viability (Tivantinib + Pemetrexed; first compound 0.03162 µM)	relative viability (Tivantinib + Pemetrexed; first compound 0.1 µM)	relative viability (Tivantinib + Pemetrexed; first compound 0.3162 µM)
NCI-H596	0.774	0.89	0.752	0.78	1.03	0.619	0.62	0.821	0.734	1.04	1.05	1.01	0.964	0.503	0.406	0.453	0.426
NCI-H647	1.25	1.09	1.11	1.23	1.28	0.792	0.618	0.574	0.83	1.09	0.86	0.86	1.07	0.17	0.192	0.18	0.184
NCI-H650	1.09	0.986	0.991	1.02	1	0.542	0.403	0.501	0.641	0.907	–	1.02	0.964	1.19	0.842	0.839	0.909
NCI-H661	0.972	0.969	0.99	1.07	1.02	0.72	0.665	0.755	0.396	0.579	0.46	0.474	–	0.922	0.961	0.975	0.844
NCI-H838	1.11	1.03	1.04	1.16	1.06	0.394	0.377	0.345	0.363	1.04	0.96	0.891	0.894	0.253	0.258	0.239	0.227
NCI-H1355	1.02	1	0.94	1.07	0.906	0.434	0.348	0.401	0.356	1.04	0.928	0.899	1.09	1.03	1.01	1	1.03
NCI-H1395	1.03	0.97	1.01	1.07	0.936	0.678	0.662	0.651	0.599	1.23	1.18	0.981	0.992	1.03	0.843	0.975	0.782
NCI-H1437	1.28	1.28	1.31	1.31	1.14	0.911	0.795	0.811	0.886	0.797	0.635	0.691	0.795	0.336	0.319	0.315	0.298
NCI-H1563	0.952	0.884	0.852	0.899	0.948	0.78	0.756	0.718	0.745	1.05	0.894	0.831	0.908	0.558	0.703	0.715	0.624
NCI-H1650	1.34	1.27	1.2	1.23	0.945	0.681	0.535	0.634	0.532	0.879	0.547	0.702	0.861	0.417	0.4	0.471	0.315
NCI-H1651	0.884	0.967	0.883	0.94	0.787	0.846	0.654	0.625	0.713	0.866	0.691	0.799	0.929	0.553	0.548	0.572	0.58
NCI-H1666	0.987	0.897	0.886	1.02	0.974	0.83	0.743	0.876	0.687	0.743	0.609	0.574	0.574	0.841	0.867	0.853	0.673
NCI-H1734	1.02	0.773	0.859	0.925	0.876	0.646	0.553	0.643	0.576	1.01	0.938	1.05	1.01	0.43	0.352	0.417	0.432
NCI-H1755	0.944	0.905	0.889	0.937	0.908	0.775	0.662	0.69	0.791	1.07	1.02	0.983	1.15	0.475	0.381	0.358	0.439
NCI-H1793	0.669	0.895	0.64	0.608	0.689	0.257	0.355	0.258	0.154	0.836	0.735	0.651	–	0.83	0.885	0.832	0.669
NCI-H1915	1.09	1.09	1.04	1.1	0.992	0.626	0.543	0.648	0.715	0.95	0.985	1	0.996	0.423	0.482	0.495	0.53
NCI-H1944	0.857	0.865	0.872	0.887	0.817	0.372	0.349	0.393	0.328	0.832	0.742	0.895	0.906	0.603	0.582	0.619	0.546

— the supplement of paper PMC10307832
